Assay results reported in patent US9988381B2, “Five-member-heterocycle fused pyridine compounds, method of producing the same, and use thereof” (SHANGHAI INSTITUTE OF MATERIA MEDICA, CHINESE ACADEMY OF …, priority 2013, dated 2018).
Read-outs that look alike come from different tables or passages of the source.

Key:
EBC-1 cell = assay: Test III: growth inhibition of non-small cell carcinoma EBC-1 cell (SRB); format: cell-based; conditions: Homo sapiens; for inhibition at 0.2 µM: read-out: Cell proliferation inhibition rate at 200 nM (%); for inhibition at 1 µM: read-out: Cell proliferation inhibition rate at 1 μM (%)
Description: Assays on the growth inhibition of the compounds against gastric tumor cell MKN45, non-small cell carcinoma EBC-1 cell (both are MET persistent activated cell lines due to MET gene amplification, and are Met dependent tumor cell lines, MKN45 cell was purchased from JCRB, Japan, EBC-1 cell was purchased from ATCC, USA) were detected using sulforhodamine B (SRB) staining. […] After incubation with compound for 72 hours, the incubation was terminated, adherent cells were retained and medium was discarded, 10% (w/v) trichloroacetic acid (100 μL pre well) was added, the cells were fixed at 4° C. for 1 hour, then rinsed with distilled water for 5 times, after dried at room temperature, SRB solution (4 mg/mL, dissolved in 1% glacial acetic acid) was added at 100 μL per well, incubated and stained at room temperature for 15 minutes, then rinsed with 1% glacial acetic acid for 5 times to remove any unbound SRB, dried at room temperature, then 10 mM Tris solution was added at 100 μL per well, the optical density (OD) value at 515 nm was measured using VERSMax microplate reader.
Experiments were conducted in duplicates. IC50 value was calculated by fitting the data for a four parameter fit using inhibition curve, the results are shown below in Table 2.

[1] = target: T1, c-Met kinase domain recombinant protein (Homo sapiens, UniProt P08581); assay: biochemical; conditions: for inhibition at 0.1 µM: read-out: Average inhibition rate at 0.1 μM (%); for inhibition at 1 µM: read-out: Average inhibition rate at 1 μM (%)
T1 construct: 50 μL diluted solution of c-Met kinase domain recombinant protein in reaction buffer was added to initiate the reaction
T1 sequence (P08581 1078-1345 limits assumed): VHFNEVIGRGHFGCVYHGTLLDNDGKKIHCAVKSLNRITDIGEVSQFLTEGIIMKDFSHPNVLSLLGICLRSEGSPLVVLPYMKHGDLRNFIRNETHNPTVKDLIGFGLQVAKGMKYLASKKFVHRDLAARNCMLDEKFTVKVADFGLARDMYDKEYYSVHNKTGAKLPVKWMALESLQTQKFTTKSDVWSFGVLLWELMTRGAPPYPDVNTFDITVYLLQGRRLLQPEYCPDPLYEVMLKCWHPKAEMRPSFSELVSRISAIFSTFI
How it was run: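 IC50 came from a four-parameter fit of inhibition rates measured by anti-phosphotyrosine (PY99/HRP) ELISA at 490 nm. The reaction ran 1 hour at 37° C with 5 μM ATP, c-Met kinase domain protein and Poly(Glu,Tyr)4:1-coated wells, in HEPES pH 7.4 buffer containing MgCl2, MnCl2, Na3VO4 and DTT.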

Row | IC50 [1] [nM] | inhibition at 0.1 µM [1] [%] | inhibition at 1 µM [1] [%] | Compound | inhibition at 0.2 µM (EBC-1 cell; EBC-1, 72 h) [%] | inhibition at 1 µM (EBC-1 cell; EBC-1, 72 h) [%] | inhibition at 0.2 µM (EBC-1 cell; EBC-1, 200 nM, 72 hours) [%] | inhibition at 1 µM (EBC-1 cell; EBC-1, 1 μM, 72 hours) [%]
1 | 4.7 ± 1 | 94.4 | 99.7 | COc1ccc2ncc(S(=O)(=O)n3ncc4ncc(-c5ccc(N6CCOCC6)cc5)cc43)n2c1 [Example 124, 1-[(6-methoxy-imidazo[1,2-a]pyridine)-3-sulfonyl]-6-(4-morpholinylphenyl)-1-H-pyrazolo[4,3-b]pyridine] | 43.1 | 92.7 |  | 
2 | 7.3 ± 1.1 | 100 | 100 | COc1ccc(-c2cnc3cnn(S(=O)(=O)c4cnc5ccc(O)cn45)c3c2)cc1 [Example 126, 1-[(6-hydroxy-imidazo[1,2-a]pyridine)-3-sulfonyl]-6-(4-methoxyphenyl)-1-H-pyrazolo[4,3-b]pyridine] | 35.1 | 87 |  | 
3 | 2 ± 0.2 | 99.4 | 99.3 | CC(C)C(=O)Oc1ccc2ncc(S(=O)(=O)n3ncc4ncc(-c5cnn(C)c5)cc43)n2c1 [Example 128, 1-[(6-isobutyryloxy-imidazo[1,2-a]pyridine)-3-sulfonyl]-6-[(1-methyl)-4-pyrazolyl]-1-H-pyrazolo[4,3-b]pyridine] | 80.6 | 87 |  | 
4 | 2.7 ± 0.5 | 99.6 | 101 | Cn1cc(-c2cnc3cnn(S(=O)(=O)c4cnc5ccc(OC(=O)c6ccco6)cn45)c3c2)cn1 [Example 129, 1-[(6-furan-2-acyloxy-imidazo[1,2-a]pyridine)-3-sulfonyl]-6-[(1-methyl)-4-pyrazolyl]-1-H-pyrazolo[4,3-b]pyridine] | 79 | 86.6 |  | 
5 | 2.6 ± 0.2 | 100 | 100 | Cn1cc(-c2ccc3ncc(S(=O)(=O)n4ncc5ncc(NC(=O)c6ccccc6)cc54)n3c2)cn1 [Example 133, 1-{(6-[(1-methyl)-4-pyrazolyl]-imidazo[1,2a]pyridine)-3-sulfonyl}-6-benzamido-1-H-pyrazolo[4,3-b]pyridine] | 86.4 | 87.8 |  | 
6 | 2.6 ± 0.2 | 87.4 | 88.2 | Cn1cc(-c2ccc3ncc(S(=O)(=O)n4ncc5ncc(C6=CCN(C7CCCC7)CC6)cc54)n3c2)cn1 [Example 135, 1-{(6-[(1-methyl)-4-pyrazolyl]-imidazo[1,2-a]pyridine)-3-sulfonyl}-6-[(1-cyclopentyl)-4-(1,2,3,6-tetrahydropyridinyl)]-1-H-pyrazolo[4,3-b]pyridine] | 89.4 | 91.4 |  | 
7 | 1.2 ± 0.1 | 90.2 | 91.3 | Cn1cc(-c2ccc3ncc(S(=O)(=O)n4ncc5ncc(-c6cnn(C7CCN(C8CCCC8)CC7)c6)cc54)n3c2)cn1 [Example 136, 1-{(6-[(1-methyl)-4-pyrazolyl]-imidazo[1,2-a]pyridine)-3-sulfonyl}-6-{{1-[(1-cyclopentyl)-4-piperidinyl]}-4-pyrazolyl}-1-H-pyrazolo[4,3-b]pyridine] | 91.4 | 92.4 |  | 
8 | 1.3 ± 0.1 | 91.6 | 89.9 | CC(C)N1CC=C(c2cnc3cnn(S(=O)(=O)c4cnc5ccc(-c6cnn(C)c6)cn45)c3c2)CC1 [Example 137, 1-{(6-[(1-methyl)-4-pyrazolyl]-imidazo[1,2-a]pyridine)-3-sulfonyl}-6-[(1-isopropyl)-4-(1,2,3,6-tetrahydropyridinyl)]-1-H-pyrazolo[4,3-b]pyridine] | 73 | 92.4 |  | 

Row | Compound | IC50 [1] [nM] | inhibition at 0.1 µM [1] [%] | inhibition at 1 µM [1] [%] | inhibition at 0.2 µM (EBC-1 cell; EBC-1, 72 h) [%] | inhibition at 1 µM (EBC-1 cell; EBC-1, 72 h) [%] | inhibition at 0.2 µM (EBC-1 cell; EBC-1, 200 nM, 72 hours) [%] | inhibition at 1 µM (EBC-1 cell; EBC-1, 1 μM, 72 hours) [%]
9 | CCC(=O)Nc1cnc2cnn(S(=O)(=O)c3cnc4ccc(Br)cn34)c2c1 [Example 132, 1-[(6-bromo-imidazo[1,2-a]pyridine)-3-sulfonyl]-6-propionamido-1-H-pyrazolo[4,3-b]pyridine] |  | 92.1 | 100 |  |  | 48.2 | 85.4
